Assays:
[1] = Comparative bioavailability study, monomethyl fumarate plasma pharmacokinetics, single dose, fasting; type: in vivo, human; conditions: Treatment A over Treatment B normalized to 180 mg DMF
Experimental: This was a single center, pilot, comparative bioavailability, open-label, randomized, single-dose, 2-period, 2-sequence, crossover study under fasting conditions. A total of 12 healthy adult male or female volunteers were included in this pilot study. For each period, subjects will be confined from at least 10 hours before dosing until 12 hours post-dose. There were a washout of 7 days or more between doses. The washout period could be increased for logistical considerations. Participation of each subject in this study lasted approximately 9 days.
The delayed-release capsule were placed on the subject's tongue. Subjects were instructed to suck the delayed-release capsule until the acetylsalicylic acid coating was dissolved or up to a maximum of 1 minute after the delayed-release capsule had been placed on the subject's tongue. The delayed-release capsule should not be chewed, bitten, or swallowed during that 1 minute period or until the coating is dissolved; only the saliva could be swallowed. The subject was instructed to give a hand sign once the acetylsalicylic acid coating was dissolved (the capsule should feel and taste different). Thereafter, or up to a maximum of 1 minute after the delayed-release capsule was placed on the subject's tongue, 240 mL of water was given to subjects to swallow the capsule. Time of dosing was set to the time the capsule was placed on the tongue. […]

[2] = pretreatment with 325 mg aspirin for 4 days before DMF; cited from earlier work

CC(=O)Oc1ccccc1C(=O)O [aspirin, acetylsalicylic acid]
Cmax Change % (A over B) [1]: did not have significant impact | flushing incidence and intensity [2]: reduced | gastrointestinal events [2]: did not affect | pharmacokinetic profile of DMF [2]: did not affect
